Measured values from patent US6562620B2, “Medium to promote islet cell survival” (McGill University, priority 1997, dated 2003).

What was measured:
[1] = system: islets; assay: Cell death detection ELISA (DNA fragmentation) of cultured islets; format: cell-based, Syrian golden hamsters; details: 3 days serum then 9 days in 25% DCM or 34 ng/ml IGF-II; mean±SEM, n=6; FIG. 10
Protocol: Three experimental groups were designed for this study: Group 1 (control), with 100 islets per culture flask; Group 2 (islets plus ducts), with 100 islets plus 80 ducts per flask; and Group 3 (islets in 25% DCM), with 100 islets per flask.
All tissues were embedded in rat tail collagen and incubated in a humidified atmosphere of 95% air, 5% CO2 at 37° C. The baseline medium for all groups was DMEM/F12, supplemented with 10% NuSerum for three days at the start of the culture period, followed by 9 days of serum-free incubation. The medium was changed every other day.
After a 12 day incubation period, the media was removed and 3 ml of collagenase XI (0.25 mg/ml) was added to each flask for 40 min. The islets were hand-picked and washed three times in Hank's buffered salt solution (HBSS, Gibco, Montreal, Quebec, Canada). The presence of DNA fragmentation, a characteristic feature of apoptosis was determined using a cell death detection ELISA (Boehringer Mannheim, Laval, Quebec). The results were expressed as absorbance at 405 nm and corrected for total DNA content. DNA (μg) was measured by fluorometry using disbenzimidazole (Hoechst 33258, Sigma, Montreal, Quebec) as described (Labarca & Pagen, 1987, Analytical Biochemistry 102:44-52).
The islets were embedded in rat tail collagen and cultured in DMEM/F12 supplemented with 10% NuSerum. […]

[2] = system: erk1 and erk2; assay: erk1 and erk2 activation in isolated islets; format: cell-based; details: human islets; FIG. 6
Excerpt: (§1) The former two pathways are known to be associated with the induction of the apoptotic program, while the latter may be protective.
Signalling through erk has been associated with cell differentiation and cell survival (FIG. 6).

[3] = system: p38; assay: p38 activation in canine islets (Western blot); format: cell-based; details: collagen 400 μg/ml
Excerpt: as §1
Signaling through the p38 MAP kinase is one pathway whose downstream effectors have been implicated in […].
In addition to growth factors, evidence is provided for the beneficial effect of matrix molecules, e.g. fibronectin for human islets, and collagen for canine islets (FIGS. 4 and 5) The data for p38 activation and its modulation by collagen represents the effect of 200 μg/ml of collagen type 1. Not shown, is that collagen in a concentration of 400 μg/ml will decrease p38 activation by over 50%.

| Substance | effect on erk1 and erk2 activation [2] | further results |
| --- | --- | --- |
| IGF-II: insulin-like growth factor II, growth factor added at 34 ng/ml |  | cell death ELISA (DNA fragmentation), IGF-II study [1]: 2.5 ± 1.0 |
| insulin | positive effect |  |
| IGF-I: insulin-like growth factor-1 | positive effect |  |
| collagen |  | decrease of p38 activation [3]: over 50% |
